Results on five compounds are retold here after PubChem BioAssay AID1259407 (Chemical Carcinogenesis Research Information System (CCRIS), 2018).

SMILES strings stand for the structures. Active and inactive are the calls of the source. How the calls were made is not given here.

This data set has as its system CCRIS mutagenicity, Ames/micronucleus/aberration tests. As to the kind of experiment: CCRIS mutagenicity studies.
Setting [1] is: Test System: AMES SALMONELLA TYPHIMURIUM, Strain/Indicator: TA98, Metabolic Activation: NONE, Method: PREINCUBATION
The mark [2] stands for this setting: Test System: AMES SALMONELLA TYPHIMURIUM, Strain/Indicator: TA100, Metabolic Activation: NONE, Method: PREINCUBATION
Where [3] appears, read: Test System: AMES SALMONELLA TYPHIMURIUM, Strain/Indicator: TA100, Metabolic Activation: NONE, Method: STANDARD PLATE.

`Nc1cccc2ncccc12`: the mutagenic call under setting [1] was “inactive; negative”; the mutagenic call (Test System: AMES SALMONELLA TYPHIMURIUM, Strain/Indicator: TA98, Metabolic Activation: RAT, LIVER, S-9, KANECHLOR 500 OR PHENOBARBITAL AND BETA-NAPHTHOFLAVONE, Method: PREINCUBATION) is “active; positive”; the mutagenic call under setting [2] is “inactive; negative”; the mutagenic call (Test System: AMES SALMONELLA TYPHIMURIUM, Strain/Indicator: TA100, Metabolic Activation: RAT, LIVER, S-9, KANECHLOR 500 OR PHENOBARBITAL AND BETA-NAPHTHOFLAVONE, Method: PREINCUBATION) was “active; positive”; the mutagenic call (Test System: AMES SALMONELLA TYPHIMURIUM, Strain/Indicator: TA100, Metabolic Activation: RAT, LIVER, S-9, PHENOBARBITAL AND 5,6-BENZOFLAVONE, Method: PREINCUBATION) is “active; positive”.
Consider `COP(=O)(OC)C(OC(=O)CCl)C(Cl)(Cl)Cl` (stereo not given), for which the mutagenic call reads like this: (Test System: AMES SALMONELLA TYPHIMURIUM, Strain/Indicator: TA98, Metabolic Activation: NONE, Method: STANDARD PLATE) “inactive; negative”; (Test System: AMES SALMONELLA TYPHIMURIUM, Strain/Indicator: TA98, Metabolic Activation: RAT, LIVER, S-9, AROCLOR, Method: STANDARD PLATE) “inactive; negative”; under setting [3], “inactive; negative”; (Test System: AMES SALMONELLA TYPHIMURIUM, Strain/Indicator: TA100, Metabolic Activation: RAT, LIVER, S-9, AROCLOR, Method: STANDARD PLATE) “inactive; negative”; (Test System: AMES SALMONELLA TYPHIMURIUM, Strain/Indicator: TA1535, Metabolic Activation: NONE, Method: STANDARD PLATE) “inactive; negative”; (Test System: AMES SALMONELLA TYPHIMURIUM, Strain/Indicator: TA1535, Metabolic Activation: RAT, LIVER, S-9, AROCLOR, Method: STANDARD PLATE) “inactive; negative”. Moreover, the mutagenic call runs as follows: (Test System: AMES SALMONELLA TYPHIMURIUM, Strain/Indicator: TA1537, Metabolic Activation: NONE, Method: STANDARD PLATE) “inactive; negative”; (Test System: AMES SALMONELLA TYPHIMURIUM, Strain/Indicator: TA1537, Metabolic Activation: RAT, LIVER, S-9, AROCLOR, Method: STANDARD PLATE) “inactive; negative”.
Take `CC(COC(=O)c1ccccc1)(COC(=O)c1ccccc1)COC(=O)c1ccccc1`: the mutagenic call (Test System: AMES SALMONELLA TYPHIMURIUM, Strain/Indicator: TA97, Metabolic Activation: HAMSTER, LIVER, S-9, AROCLOR 1254 (10 OR 30%), Method: PREINCUBATION) was “inactive; negative”; the mutagenic call (Test System: AMES SALMONELLA TYPHIMURIUM, Strain/Indicator: TA97, Metabolic Activation: NONE, Method: PREINCUBATION) was “inactive; negative”; the mutagenic call (Test System: AMES SALMONELLA TYPHIMURIUM, Strain/Indicator: TA97, Metabolic Activation: RAT, LIVER, S-9, AROCLOR 1254 (10 OR 30%), Method: PREINCUBATION) is “inactive; negative”; the mutagenic call (Test System: AMES SALMONELLA TYPHIMURIUM, Strain/Indicator: TA98, Metabolic Activation: HAMSTER, LIVER, S-9, AROCLOR 1254 (10 OR 30%), Method: PREINCUBATION) is “inactive; negative”; the mutagenic call under setting [1] is “inactive; negative”; the mutagenic call (Test System: AMES SALMONELLA TYPHIMURIUM, Strain/Indicator: TA98, Metabolic Activation: RAT, LIVER, S-9, AROCLOR 1254 (10 OR 30%), Method: PREINCUBATION) was “inactive; negative”. In addition, the mutagenic call reads like this: (Test System: AMES SALMONELLA TYPHIMURIUM, Strain/Indicator: TA100, Metabolic Activation: HAMSTER, LIVER, S-9, AROCLOR 1254 (10 OR 30%), Method: PREINCUBATION) “inactive; negative”; under setting [2], “inactive; negative”; (Test System: AMES SALMONELLA TYPHIMURIUM, Strain/Indicator: TA100, Metabolic Activation: RAT, LIVER, S-9, AROCLOR 1254 (10 OR 30%), Method: PREINCUBATION) “inactive; negative”; (Test System: AMES SALMONELLA TYPHIMURIUM, Strain/Indicator: TA1535, Metabolic Activation: HAMSTER, LIVER, S-9, AROCLOR 1254 (10 OR 30%), Method: PREINCUBATION) “inactive; negative”; (Test System: AMES SALMONELLA TYPHIMURIUM, Strain/Indicator: TA1535, Metabolic Activation: NONE, Method: PREINCUBATION) “inactive; negative”; (Test System: AMES SALMONELLA TYPHIMURIUM, Strain/Indicator: TA1535, Metabolic Activation: RAT, LIVER, S-9, AROCLOR 1254 (10 OR 30%), Method: PREINCUBATION) “inactive; negative”. In addition, the mutagenic call (Test System: AMES SALMONELLA TYPHIMURIUM, Strain/Indicator: TA1537, Metabolic Activation: HAMSTER, LIVER, S-9, AROCLOR 1254 (30%), Method: PREINCUBATION) is “inactive; negative”; the mutagenic call (Test System: AMES SALMONELLA TYPHIMURIUM, Strain/Indicator: TA1537, Metabolic Activation: NONE, Method: PREINCUBATION) is “inactive; negative”; the mutagenic call (Test System: AMES SALMONELLA TYPHIMURIUM, Strain/Indicator: TA1537, Metabolic Activation: RAT, LIVER, S-9, AROCLOR 1254 (30%), Method: PREINCUBATION) was “inactive; negative”.
Turning to `CC(C)OC(=O)/C(Cl)=C(/Cl)C=O`, the mutagenic call under setting [3] was “active; positive”.
Consider `CCCC[N+](=O)[O-]`, for which the mutagenic call reads like this: under setting [1], “inactive; negative”; (Test System: AMES SALMONELLA TYPHIMURIUM, Strain/Indicator: TA98, Metabolic Activation: RAT, LIVER, S-9, AROCLOR, Method: PREINCUBATION) “inactive; negative”; (Test System: AMES SALMONELLA TYPHIMURIUM, Strain/Indicator: TA98, Metabolic Activation: RAT, LIVER, S-9, KANECHLOR 500, Method: PREINCUBATION) “inactive; negative”; under setting [2], “inactive; negative”; (Test System: AMES SALMONELLA TYPHIMURIUM, Strain/Indicator: TA100, Metabolic Activation: RAT, LIVER, S-9, AROCLOR, Method: PREINCUBATION) “inactive; negative”; (Test System: AMES SALMONELLA TYPHIMURIUM, Strain/Indicator: TA100, Metabolic Activation: RAT, LIVER, S-9, KANECHLOR 500, Method: PREINCUBATION) “inactive; negative”. Besides, the mutagenic call runs as follows: (Test System: AMES SALMONELLA TYPHIMURIUM, Strain/Indicator: TA102, Metabolic Activation: NONE, Method: PREINCUBATION) “inactive; negative”; (Test System: AMES SALMONELLA TYPHIMURIUM, Strain/Indicator: TA102, Metabolic Activation: RAT, LIVER, S-9, AROCLOR, Method: PREINCUBATION) “inactive; negative”; (Test System: E. COLI, Strain/Indicator: WP2 UVRA (PKM101), Metabolic Activation: NONE, Method: PREINCUBATION) “inactive; negative”; (Test System: E. COLI, Strain/Indicator: WP2 UVRA (PKM101), Metabolic Activation: RAT, LIVER, S-9, KANECHLOR 500, Method: PREINCUBATION) “inactive; negative”; (Test System: UDS RAT HEPATOCYTES, Strain/Indicator: THY INCORP, Metabolic Activation: NONE) “inactive; negative”.
